{
  "source": "ChEMBL document CHEMBL5579802",
  "about": "“Identification of 3,4-dihydropyrimido[4,5-d]pyrimidin-2(1H)-one scaffolds as potent Lck inhibitors as anti-cancer agents” (Bioorg Med Chem Lett, 2024)",
  "assay_type_in_all_cases": "functional",
  "key": {"NCI-H522": {"test_system": "NCI-H522", "assay": "Antiproliferative activity against human NCI-H522 cells"}, "SF-268": {"test_system": "SF-268", "assay": "Antiproliferative activity against human SF-268 cells"}, "SNB-19": {"test_system": "SNB-19", "assay": "Antiproliferative activity against human SNB-19 cells"}, "SNB-75": {"test_system": "SNB-75", "assay": "Antiproliferative activity against human SNB-75 cells"}, "U-251": {"test_system": "U-251", "assay": "Antiproliferative activity against human U-251 cells"}, "LOX IMVI": {"test_system": "LOX IMVI", "assay": "Antiproliferative activity against human LOX IMVI cells"}, "Malme-3M": {"test_system": "Malme-3M", "assay": "Antiproliferative activity against human Malme-3M cells"}, "M14": {"test_system": "M14", "assay": "Antiproliferative activity against human M14 cells"}, "MDA-MB-435": {"test_system": "MDA-MB-435", "assay": "Antiproliferative activity against human MDA-MB-435 cells"}, "SK-MEL-2": {"test_system": "SK-MEL-2", "assay": "Antiproliferative activity against human SK-MEL-2 cells"}, "SK-MEL-28": {"test_system": "SK-MEL-28", "assay": "Antiproliferative activity against human SK-MEL-28 cells"}, "UACC-257": {"test_system": "UACC-257", "assay": "Antiproliferative activity against human UACC-257 cells"}, "IGROV-1": {"test_system": "IGROV-1", "assay": "Antiproliferative activity against human IGROV-1 cells"}, "OVCAR-3": {"test_system": "OVCAR-3", "assay": "Antiproliferative activity against human OVCAR-3 cells"}, "OVCAR-5": {"test_system": "OVCAR-5", "assay": "Antiproliferative activity against human OVCAR-5 cells"}, "OVCAR-8": {"test_system": "OVCAR-8", "assay": "Antiproliferative activity against human OVCAR-8 cells"}, "NCI/ADR-RES": {"test_system": "NCI/ADR-RES", "assay": "Antiproliferative activity against human NCI/ADR-RES cells"}, "SK-OV-3": {"test_system": "SK-OV-3", "assay": "Antiproliferative activity against human SK-OV-3 cells"}, "786-0": {"test_system": "786-0", "assay": "Antiproliferative activity against human 786-0 cells"}, "A498": {"test_system": "A498", "assay": "Antiproliferative activity against human A498 cells"}, "ACHN": {"test_system": "ACHN", "assay": "Antiproliferative activity against human ACHN cells"}, "CAKI-1": {"test_system": "CAKI-1", "assay": "Antiproliferative activity against human CAKI-1 cells"}, "RXF 393": {"test_system": "RXF 393", "assay": "Antiproliferative activity against human RXF 393 cells"}, "SN12C": {"test_system": "SN12C", "assay": "Antiproliferative activity against human SN12C cells"}, "TK-10": {"test_system": "TK-10", "assay": "Antiproliferative activity against human TK-10 cells"}, "UO-31": {"test_system": "UO-31", "assay": "Antiproliferative activity against human UO-31 cells"}, "PC-3": {"test_system": "PC-3", "assay": "Antiproliferative activity against human PC-3 cells"}, "DU-145": {"test_system": "DU-145", "assay": "Antiproliferative activity against human DU-145 cells"}, "MCF7": {"test_system": "MCF7", "assay": "Antiproliferative activity against human MCF7 cells"}, "MDA-MB-231": {"test_system": "MDA-MB-231", "assay": "Antiproliferative activity against human MDA-MB-231 cells"}, "Hs-578T": {"test_system": "Hs-578T", "assay": "Antiproliferative activity against human Hs-578T cells"}, "BT-549": {"test_system": "BT-549", "assay": "Antiproliferative activity against human BT-549 cells"}, "T47D": {"test_system": "T47D", "assay": "Antiproliferative activity against human T47D cells"}, "MDA-MB-468": {"test_system": "MDA-MB-468", "assay": "Antiproliferative activity against human MDA-MB-468 cells"}},
  "data": [
    {"smiles": "Cc1ccc(Nc2ncc3c(n2)N(C)C(=O)N(c2cc(NC(=O)c4ccc([N+](=O)[O-])c(OCC(C)C)c4)ccc2C)C3)cn1", "values": [
      {"measurement": "GI50", "setting": "NCI-H522", "result": 300, "unit": "nM"},
      {"measurement": "GI50", "setting": "SF-268", "result": 490, "unit": "nM"},
      {"measurement": "GI50", "setting": "SNB-19", "result": 3920, "unit": "nM"},
      {"measurement": "GI50", "setting": "SNB-75", "result": 290, "unit": "nM"},
      {"measurement": "GI50", "setting": "U-251", "result": 550, "unit": "nM"},
      {"measurement": "GI50", "setting": "LOX IMVI", "result": 200, "unit": "nM"},
      {"measurement": "GI50", "setting": "Malme-3M", "result": 200, "unit": "nM"},
      {"measurement": "GI50", "setting": "M14", "result": 160, "unit": "nM"},
      {"measurement": "GI50", "setting": "MDA-MB-435", "result": 250, "unit": "nM"},
      {"measurement": "GI50", "setting": "SK-MEL-2", "result": 92, "unit": "nM"},
      {"measurement": "GI50", "setting": "SK-MEL-28", "result": 240, "unit": "nM"},
      {"measurement": "GI50", "setting": "UACC-257", "result": 670, "unit": "nM"},
      {"measurement": "GI50", "setting": "IGROV-1", "result": 210, "unit": "nM"},
      {"measurement": "GI50", "setting": "OVCAR-3", "result": 1090, "unit": "nM"},
      {"measurement": "GI50", "setting": "OVCAR-5", "result": 540, "unit": "nM"},
      {"measurement": "GI50", "setting": "OVCAR-8", "result": 410, "unit": "nM"},
      {"measurement": "GI50", "setting": "NCI/ADR-RES", "result": 3530, "unit": "nM"},
      {"measurement": "GI50", "setting": "SK-OV-3", "result": 190, "unit": "nM"},
      {"measurement": "GI50", "setting": "786-0", "result": 450, "unit": "nM"},
      {"measurement": "GI50", "setting": "A498", "result": 220, "unit": "nM"},
      {"measurement": "GI50", "setting": "ACHN", "result": 150, "unit": "nM"},
      {"measurement": "GI50", "setting": "CAKI-1", "result": 60, "unit": "nM"},
      {"measurement": "GI50", "setting": "RXF 393", "result": 94, "unit": "nM"},
      {"measurement": "GI50", "setting": "SN12C", "result": 170, "unit": "nM"},
      {"measurement": "GI50", "setting": "TK-10", "result": 390, "unit": "nM"},
      {"measurement": "GI50", "setting": "UO-31", "result": 270, "unit": "nM"},
      {"measurement": "GI50", "setting": "PC-3", "result": 790, "unit": "nM"},
      {"measurement": "GI50", "setting": "DU-145", "result": 400, "unit": "nM"},
      {"measurement": "GI50", "setting": "MCF7", "result": 8330, "unit": "nM"},
      {"measurement": "GI50", "setting": "MDA-MB-231", "result": 130, "unit": "nM"},
      {"measurement": "GI50", "setting": "Hs-578T", "result": 280, "unit": "nM"},
      {"measurement": "GI50", "setting": "BT-549", "result": 1370, "unit": "nM"},
      {"measurement": "GI50", "setting": "T47D", "result": 700, "unit": "nM"},
      {"measurement": "GI50", "setting": "MDA-MB-468", "result": 380, "unit": "nM"}
    ]}
  ]
}
